Source: patent US7803955B2, “Method for preparing 2,5,7,8-tetramethyl-2-(2′-carboxyethyl)-6-acetoxychroman-precursor- α-CEHC precursor” (Institut Neftekhimii I Kataliza Ran, priority 2005, dated 2010)

Assays:
[1] = unlike the known diuretics; cited from earlier work
[2] = various model oxidative reactions; compared with α-tocopherol, ascorbic acid, Trolox; cited from earlier work
[3] = ratio to α-tocopherol; cited from earlier work

## CC(=O)Oc1c(C)c(C)c2c(c1C)CCC(C)(CCC(=O)O)O2 (stereo not shown) [(V), 2,5,7,8-tetramethyl-2-(2′-carboxyethyl)-6-acetoxychroman]
other
  melting point: 149 to 150 °C

## Cc1c(O)cc2c(c1C)OC(C)(CCC(=O)O)CC2 (stereo not shown) [γ-CEHC]
[1]
  excretion of sodium ions / potassium ions: exclusively selectively promotes the excretion of sodium ions without affecting potassium ions

## Cc1c(C)c2c(c(C)c1O)CCC(C)(CCC(=O)O)O2 (stereo not shown) [acid (II), 2,5,7,8-tetramethyl-2-(2′-carboxyethyl)-6-hydroxychroman]
[2]
  antioxidant activity in vitro: high antioxidant properties comparable with such known preparations as α-tocopherol, ascorbic acid, and the cardioprotective agent Trolox

## CC(=O)Oc1c(C)c(C)c2c(c1C)CCC(C)(CCC[C@H](C)CCC[C@H](C)CCCC(C)C)O2 (stereo partly drawn) [α-tocopheryl acetate]
[3]
  vitamin activity relative to non-acetylated α-tocopherol: 1.47 times
